Test results reported in patent US20180071354A1, “SELECTIVE BREEDING METHOD OF ANTITUMOR/ANTICANCER CAMELLIA SINENSIS STRAIN, AND TEA PRODUCT OF SUCH STRAIN” (FUJIAN AGRICULTURE AND FORESTRY UNIVERSITY, priority 2015, published 2018).
Converted amounts (≈) assume the structure as drawn.

System: human liver cancer cell line HepG2
Test: In vitro antitumor/anticancer testing (CCK-8), HepG2
Type: cell-based
Conditions: 48 h
Procedure: Each of Tea Product 1 and Conventional Tea Product obtained in section A of this example was used to prepare test tea samples according to the method described below. A proper amount of the respective tea product was added into sterile water to prepare a stock solution with a concentration of 100 mg/mL, followed by using a membrane filter with a pore size of 0.22 μm to conduct vacuum filtration and sterilization. The resulting stock solution was diluted with a respective complete medium shown in Table 3 below to form test tea samples with different concentrations. In other words, the thus obtained test tea samples to be used for treating a respective cancer/tumor cell line shown in Table 3 were prepared using the same complete medium as that for the respective cancer/tumor cell line.
Specifically, each of the aforesaid commercially available agents was subjected to the method described below to prepare comparative test samples. A proper amount of a respective commercially available agent was dissolved in phosphate-buffered saline (PBS) to prepare a stock solution with a concentration of 5 mg/mL, followed by using a membrane filter with a pore size of 0.22 μm to conduct vacuum filtration and sterilization. The resulting stock solution was diluted with a respective complete medium shown in Table 3 below to form comparative test samples with different concentrations. To be specific, the comparative test samples prepared from the respective commercially available agent have the concentrations shown in Table 2 below. The thus obtained comparative test samples to be used for treating a respective cancer/tumor cell line shown in Table 3 were prepared using the same complete medium as that for the respective cancer/tumor cell line.
The following cancer/tumor cells purchased from Chinese Academy of Sciences, Shanghai Institutes for Biological Sciences, Institute of Biochemistry and Cell Biology were used for in vitro antitumor/anticancer testing: human liver cancer cell line HepG2, human ovarian cancer cell line SK-OV-3, human cervical cancer cell line Hela, human lung cancer cell line A549, human glioblastoma cell line U-87MG, human mammary gland/duct cancer cell line BT-474, human prostate cancer cell line PC-3, human leukemia cell line HL-60, human gastric cancer cell line SMMC-7721, human colon cancer cell line HCT-116, human squamous cell carcinoma cell line A431, human leukemia cell line K562, human pancreatic cancer cell line PANC-1, and human gastric cancer cell line BGC-823.
The cultivation of each cancer/tumor cell line is described as follows. The cancer/tumor cancer cells were cultivated in the respective complete medium supplemented with 100 μg/mL penicillin and 100 μg/mL streptomycin in an incubator (37° C., 100% relative humidity, 5% CO2). When adherent cancer/tumor cells reached 80% confluence during the log-phase, cell detachment was conducted using 0.6 mL of 0.3% trypsin. Afterwards, a cell suspension having a cell density of 1.0×10^4 cells/mL was prepared. 100 μL of the cell suspension (i.e. 1000 cancer/tumor cells) was added into wells of a 96-well plate (Cat. No. 3599, Corning Costar), followed by cultivation in an incubator (37° C., 100% relative humidity, 5% CO2) for 24 hours.
As experimental groups, the tumor/cancer cells of each cell line were treated with the test tea samples prepared from one or more of the tea products and the comparative test samples prepared from one or more of the commercially available agents as obtained in section B of this example (for more detailed information about the tea product(s) and the commercially available product (s) used to treat each cell line, please see Table 4 below). To be specific, 6 to 10 test tea samples prepared from the same tea product and having different concentrations, as well as 6 to 10 comparative test samples prepared from the same commercially available agent and having different concentrations, were utilized to treat the tumor/cancer cells of each cell line. […]

O=c1[nH]cc(F)c(=O)[nH]1 [5-fluorouracil]
inhibition at 0.078125 µg/mL (0.078125 μg/mL, read-out: Percent growth inhibition): 10.9% | inhibition at 0.15625 µg/mL (0.15625 μg/mL, read-out: Percent growth inhibition): 24.5% | inhibition at 0.3125 µg/mL (0.3125 μg/mL, read-out: Percent growth inhibition): 37.5% | inhibition at 0.625 µg/mL (0.625 μg/mL, read-out: Percent growth inhibition): 63.7% | inhibition at 1.25 µg/mL (1.25 μg/mL, read-out: Percent growth inhibition): 83.3% | inhibition at 2.5 µg/mL (2.5 μg/mL, read-out: Percent growth inhibition): 86% | inhibition at 5 µg/mL (5 μg/mL, read-out: Percent growth inhibition): 89.1% | IC50 (Table 5 concentration series): 0.457 µg/mL (≈ 3.52 µM)
